In patent US6429212B1, “Medicinal composition” (Ishihara Sangyo Kaisha Ltd., priority 1996, dated 2002):

How the values were obtained:
[1] = test system: TNF-α production or secretion by human leukemia cells HL-60 (TPA stimulation); assay: Influence on TNF-α production or secretion by HL-60 cells stimulated by TPA (ELISA of supernatant); type: cell-based; details: HL-60, TPA 10 nM; for amount of TNF-α in the supernatant, TPA alone = 100%: 16 hours (Table 9); for Amount of TNF (%), TPA alone = 100%: compound 10 μM, 16 hours (Test Example 3)
Method: (§1) Human leukemia cells HL-60 produce tumor necrosis factor (TNF-α) by stimulation of Okadaic acid (9,10-Deepithio-9,10-didehydroacanthifolicin) or 12O-tetradecanoyl phorbol-13-acetate (TPA). Influences of the compounds of the present invention to production or secretion of TNF-α by them were observed.
The same operation was carried out as in Test Example 1, except that TPA (produced by Sigma) having a final concentration of 10 nM was used, instead of Okadaic acid having a final concentration of 50 nM.
The values in the Table are values obtained by supposing the amount of TNF-α in the supernatant of the culture medium when treated only with TPA having a final concentration of 10 nM, 100%.
Human leukemia cells (HL-60) produce tumor necrosis factor (TNF-α) by stimulation of 12O-tetradecanoyl phorbol-13-acetate (TPA). The influences of the compounds of the present invention to production of TNF-αby it were observed.
(§2) Human leukemia cells (HL-60) were cultured by using a RPMI 1640 culture medium (including 5% fetal bovine serum), in a carbonic acid gas incubator (5% CO2, humidified, 37° C.). Then, the cells were pre-cultured in a RPMI 1640 culture medium (including 10% fetal bovine serum). TPA was added thereto, so that the final concentration was 10 nM based on the HL-60 cells (5×10^5 cells/ml) in an exponentially growing stage. Then, the compound of the present invention was added thereto so that the predetermined concentration could be obtained, to prepare a cell suspension, which was then cultured in a carbonic gas incubator (5% CO2, humidified, 37° C.). In this culture, a multiplate having 24 holes (produced by Corning) was used, and the cell suspension was injected in an amount of 0.5 ml per hole, to culture the cells.
16 hours after the culture started, the cells were removed by centrifugation(1000-2000 rpm×10 min), and the amount of TNF-α in the supernatant was measured in accordance with the method of Amersham, by using human TNF-α ELISA system (produced by Amersham).
The values are obtained by supposing the amount of TNF-α when treated only with TPA having a final concentration of 10 nM, 100%.
The influences of the compounds of the present invention to production or secretion of TNF-α by TPA stimulation were observed, in the same manner as in Test Example 2.

[2] = test system: angiogenesis under skin of mice; assay: Angiogenesis under skin of mice (b-FGF matrigel, amount of hemoglobin); type: in vivo, BALB/c male mice; parameters: key to Amount of hemoglobin, value in parentheses (Control = 100): % of control (control = 100), hemoglobin per matrigel
Method: By subcutaneously injecting a mixture having recombinant human fibroblast growth factor-basic added to matrigel, to the back of a mice, angiogenesis occurs under skin of the mice. By measuring the amount of hemoglobin in matrigel, angiogenesis can be quantified. Influences of the compounds of the present invention to angiogenesis were observed.
Matrigel (trademark; basement membrane matrix, phenol is not included, purchased from Becton Dickinson Labware) was added to Dulbecco's modified Eagle's medium (purchased from Sigma), so that the concentration was 9 mg/ml. Recombinant Human Fibroblast Growth Factor-basic (b-FGF, produced by Intergen) was added thereto, so that the concentration was 2 μg/700 μl. The mixture was subcutaneously injected to 6-week BALB/c male mice (Charles River Japan Inc.) in an amount of 700 μl per mouse. Everyday after matrigel injection, a suspension having the compound of the present invention added to 0.8% Tween 80 (purchased from Nacalai Tesque), so that the predetermined concentration could be obtained, was intraperitoneally injected to the mice. 8 days after matrigel injection, matrigel was taken out from the mice, which was then placed in 200 μl of 1% NH4OH at room temperature for 4 hours, to extract hemoglobin. The extraction and matrigel together were subjected to centrifugal separation (10000 rpm, 5 min). 100 μl of the obtained supernatant and 500 μl of Drabkin's reagent (purchased from Sigma) were mixed and left at room temperature. After left more than 15 minutes, absorbance of the supernatant at a wavelength of 540 nm was measured by using a spectrophotometer SPECTRA max 250 (produced by Molecular Devices). The amount of hemoglobin in the supernatant was obtained from the standard curve prepared by using hemoglobin standard (purchased from Sigma), and the amount of hemoglobin per matrigel obtained from a mouse was calculated.
The amount of the hemoglobin in each treatment fraction was corrected by the amount of hemoglobin wherein matrigel having no b-FGF added was injected to the mice, and 0.8% Tween 80 as a solvent alone was injected everyday.
Influences of the compounds of the present invention to angiogenesis under skin of mice were observed, in the same manner as in Test Example 8.

[3] = test system: TNF-α production or secretion by human leukemia cells HL-60 (Okadaic acid stimulation); assay: Influence on TNF-α production or secretion by HL-60 cells stimulated by Okadaic acid (ELISA of supernatant); type: cell-based; details: for amount of TNF-α in the supernatant, Okadaic acid alone = 100%: HL-60, Okadaic acid 50 nM, 16 hours (Table 8); for amount of TNF-α, Okadaic acid alone = 100%: HL-60, Okadaic acid stimulation (Table 14)
Method: as §1
as §2, with “bovine serum). Okadaic acid was added” for “bovine serum). TPA was added”, “concentration was 50 nM based” for “concentration was 10 nM based”, “a carbonic acid gas incubator” for “a carbonic gas incubator”
16 hours after the culture started, the cells were removed by centrifugation (1000-2000 rpm×10 min), and the amount of TNF-α in the supernatant was measured in accordance with the method of Amersham, by using human TNF-α ELISA system (produced by Amersham).
The values in the Table are values obtained by supposing the amount of TNF-αin the supernatant of the culture medium when treated only with Okadaic acid having a final concentration of 50 nM, 100%.
Influences of the compounds of the present invention to production or secretion of TNF-α by Okadaic acid stimulation were observed, in the same manner as in Test Example 1.

[4] = 5 mg/kg, experiment (b) (Table 15)
[5] = 5 mg/kg, experiment (b), Control 83.3 (Table 15)

SMILES | amount of TNF-α in the supernatant, TPA alone = 100% ([1]; compound 10 nM) | amount of TNF-α in the supernatant, TPA alone = 100% ([1]; compound 100 nM) | amount of TNF-α in the supernatant, TPA alone = 100% ([1]; compound 0.3 μM) | Amount of hemoglobin, value in parentheses (Control = 100) [2, 4] | Amount of hemoglobin [2, 5] | amount of TNF-α in the supernatant, Okadaic acid alone = 100% ([3]; compound 1 nM) | amount of TNF-α in the supernatant, Okadaic acid alone = 100% ([3]; compound 10 nM) | amount of TNF-α in the supernatant, Okadaic acid alone = 100% ([3]; compound 100 nM) | amount of TNF-α in the supernatant, Okadaic acid alone = 100% ([3]; compound 0.3 μM) | further results
C[C@@H](c1ccccc1)N1C(=O)c2c(F)c(F)c(F)c(F)c2C1=O [Compound 17, (S)-2-(1-phenylethyl)-4,5,6,7-tetrafluoro-1H-isoindole-1,3-dione] | 102% | 120% | 143% | 31 | 25.7 μg/gel | 100% | 99% | 95% | 70% | Amount of hemoglobin, value in parentheses (Control = 100) ([2]; 1 mg/kg, experiment (b) (Table 15)): 21; Amount of hemoglobin ([2]; 1 mg/kg, experiment (b), Control 83.3 (Table 15)): 17.3 μg/gel
C[C@H](c1ccccc1)N1C(=O)c2c(F)c(F)c(F)c(F)c2C1=O [Compound 18, (R)-2-(1-phenylethyl)-4,5,6,7-tetrafluoro-1H-isoindole-1,3-dione] | 100% | 101% | 97% | 78 | 65.1 μg/gel | 97% | 55% | 8% | 2% | 
C[C@@H](c1cccc2ccccc12)N1C(=O)c2c(F)c(F)c(F)c(F)c2C1=O [Compound 49, (S)-2-(1-naphthylethyl)-4,5,6,7-tetrafluoro-1H-isoindole-1,3-dione] | 100% | 99% | 101% |  |  | 100% | 102% | 100% | 101% | 
C[C@H](c1cccc2ccccc12)N1C(=O)c2c(F)c(F)c(F)c(F)c2C1=O [Compound 50, (R)-2-(1-naphthylethyl)-4,5,6,7-tetrafluoro-1H-isoindole-1,3-dione] | 100% | 100% | 100% | 79 | 65.4 μg/gel | 100% | 88% | 43% | 2% | 
C[C@@H](C1CCCCC1)N1C(=O)c2c(F)c(F)c(F)c(F)c2C1=O [Compound 68, (S)-2-(1-cyclohexylethyl)-4,5,6,7-tetrafluoro-1H-isoindole-1,3-dione] | 103% | 115% | 124% |  |  | 102% | 101% | 96% | 65% | 
O=C1c2ccccc2C(=O)N1c1ccccc1 [Compound 201, N-phenylphthalimide] |  |  |  |  |  |  |  |  |  | amount of TNF-α, Okadaic acid alone = 100% ([3]; compound 1 μM): 100%; amount of TNF-α, Okadaic acid alone = 100% ([3]; compound 3 μM): 100%; amount of TNF-α, Okadaic acid alone = 100% ([3]; compound 10 μM): 82%; amount of TNF-α, Okadaic acid alone = 100% ([3]; compound 30 μM): 60%; amount of TNF-α, Okadaic acid alone = 100% ([3]; compound 100 μM): 41%
CC(C)c1cccc(C(C)C)c1N1C(=O)c2ccccc2C1=O [Compound 202, N-(2.6-diisopropylphenyl)-phthalimide] |  |  |  |  |  |  |  |  |  | Amount of hemoglobin, value in parentheses (Control = 100) ([2]; 10 mg/kg, experiment (a) (Table 15)): 77; Amount of hemoglobin ([2]; 10 mg/kg, experiment (a), Control 307.3 (Table 15)): 235.4 μg/gel; Amount of hemoglobin, value in parentheses (Control = 100) ([2]; 100 mg/kg, experiment (a) (Table 15)): 50; Amount of hemoglobin ([2]; 100 mg/kg, experiment (a), Control 307.3 (Table 15)): 152.5 μg/gel; amount of TNF-α, Okadaic acid alone = 100% ([3]; compound 1 μM): 100%; amount of TNF-α, Okadaic acid alone = 100% ([3]; compound 3 μM): 80%; amount of TNF-α, Okadaic acid alone = 100% ([3]; compound 10 μM): 43%; amount of TNF-α, Okadaic acid alone = 100% ([3]; compound 30 μM): 20%; amount of TNF-α, Okadaic acid alone = 100% ([3]; compound 100 μM): 9%
CC(C)c1cccc(C(C)C)c1N1C(=O)c2c(F)c(F)c(F)c(F)c2C1=O [Compound 203, N-(2,6-diisopropylphenyl)-4,5,6,7-tetra-fluoro-phthalimide] |  |  |  |  |  |  |  |  |  | Amount of hemoglobin, value in parentheses (Control = 100) ([2]; 1 mg/kg, experiment (a) (Table 15)): 69; Amount of hemoglobin ([2]; 1 mg/kg, experiment (a), Control 307.3 (Table 15)): 211.4 μg/gel; amount of TNF-α, Okadaic acid alone = 100% ([3]; compound 1 nM): 100%; amount of TNF-α, Okadaic acid alone = 100% ([3]; compound 3 nM): 93%; amount of TNF-α, Okadaic acid alone = 100% ([3]; compound 10 nM): 75%; amount of TNF-α, Okadaic acid alone = 100% ([3]; compound 30 nM): 42%; amount of TNF-α, Okadaic acid alone = 100% ([3]; compound 100 nM): 0%
CC(C)c1cccc(C(C)C)c1N1C(=O)Cc2ccccc2C1=O [Compound A-3, N-(2.6-diisopropylphenyl)-homophthalimide] |  |  |  |  |  |  |  |  |  | Amount of TNF (%), TPA alone = 100% [1]: 258%
CC(C)c1cccc(C(C)C)c1N1C(=O)c2cc3ccccc3cc2C1=O [Compound B-3, N-(2,6-diisopropylphenyl) 2,3-naphthalimide] |  |  |  |  |  |  |  |  |  | Amount of TNF (%), TPA alone = 100% [1]: 134%
